Earlier results as cited in publication PMC9284491 (Nature Communications, 2022).

What was measured:
ER = biological target: T1, ER (Homo sapiens, UniProt P03372); settings: maximum 500 mg dose; cited from earlier work
T1 sequence (P03372 1-595): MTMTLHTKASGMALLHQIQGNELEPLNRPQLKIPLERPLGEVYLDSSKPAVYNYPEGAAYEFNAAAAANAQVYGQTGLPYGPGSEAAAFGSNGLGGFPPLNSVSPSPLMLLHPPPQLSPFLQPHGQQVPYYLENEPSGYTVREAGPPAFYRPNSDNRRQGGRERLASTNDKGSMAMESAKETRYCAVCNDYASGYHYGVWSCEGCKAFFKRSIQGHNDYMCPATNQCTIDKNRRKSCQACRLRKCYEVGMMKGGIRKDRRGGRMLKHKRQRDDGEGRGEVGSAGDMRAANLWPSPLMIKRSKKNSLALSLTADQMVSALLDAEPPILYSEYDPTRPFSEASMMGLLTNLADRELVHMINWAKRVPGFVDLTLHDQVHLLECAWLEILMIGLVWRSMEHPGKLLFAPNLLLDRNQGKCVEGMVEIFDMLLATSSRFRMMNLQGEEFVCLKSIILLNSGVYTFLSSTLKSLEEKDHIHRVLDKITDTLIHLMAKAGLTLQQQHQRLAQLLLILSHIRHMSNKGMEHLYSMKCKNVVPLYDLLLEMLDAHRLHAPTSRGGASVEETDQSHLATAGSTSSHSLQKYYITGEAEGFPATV

[1] = 500 mg intramuscular (day 1, day 14 of cycle 1, monthly from cycle 2); cited from earlier work

C[C@]12CC[C@@H]3c4ccc(O)cc4C[C@@H](CCCCCCCCC[S+]([O-])CCCC(F)(F)C(F)(F)F)[C@H]3[C@@H]1CC[C@@H]2O (some centres unmarked) [fulvestrant]
ER occupancy at maximum dose (ER): does not fully occupy the ER | Ctrough at steady state [1]: 12.5 ng/mL
